Source: patent publication US20220242894A1, “Ruthenium (II) Complexes and Their Use as AntiCancer Agents” (Paris Sciences et Lettres, priority 2019, published 2022)
Like-named read-outs stand apart in the source and are kept apart here.

Legend:
[1] = tested on: HeLa (human cervical); assay: Cytotoxicity, fluorometric cell viability assay (resazurin), HeLa; assay type: cell-based; conditions: read-out: IC50 (μM) HeLa
Protocol: (§1) HeLa and CT-26 cell lines were cultured in DMEM media (Gibco) supplemented with 10% of fetal calf serum (Gibco). CT-26 LUC cell line was cultured in DMEM media (Gibco) supplemented with 10% of fetal calf serum (Gibco) and 1% Genticin. RPE-1 cell line was cultured in DMEM/F-12 media (Gibco) supplemented with 10% of fetal calf serum. […] The resistance of A2780 cis was maintained by cisplatin treatment (1 μM) for one week every month. […] U87 cell line was cultured in MEM media (Gibco) supplemented with 10% of fetal calf serum (Gibco) and 1% of non-essential amino acid mixture (Gibco). Cell lines were complemented with 100 U/ml penicillin-streptomycin mixture (Gibco) and maintained in humidified atmosphere at 37° C. and 5% of CO2.
(§2) Cytotoxicity of the tested Ru compounds according to the present invention was assessed by a fluorometric cell viability assay using Resazurin (ACROS Organics). […] After 24 h, cells were treated with increasing concentrations of the compounds. Compounds dilutions were prepared as follows: 2.5 mM stock in DMSO was further diluted to 100 μM with media and then filtrated. After 48 h incubation, medium was removed, and 100 μl of complete medium containing resazurin (0.2 mg/ml final concentration) was added. […] IC50 values were then calculated using GraphPad Prism software.

[2] = tested on: A2780 (human ovarian carcinoma); assay: Cytotoxicity, fluorometric cell viability assay (resazurin), A2780; assay type: cell-based; conditions: read-out: IC50 (μM) A2780
Protocol: as §1, §2

[3] = tested on: A2780 ADR (human doxorubicin resistant ovarian carcinoma); assay: Cytotoxicity, fluorometric cell viability assay (resazurin), A2780 ADR; assay type: cell-based
Protocol: as §1, §2

[4] = tested on: A2780 cis (human cisplatin resistant ovarian carcinoma); assay: Cytotoxicity, fluorometric cell viability assay (resazurin), A2780 cis; assay type: cell-based; conditions: read-out: IC50 (μM) A2780 cis
Protocol: as §1, §2

[5] = tested on: CT-26 (mouse colon adenocarcinoma); assay: Cytotoxicity, fluorometric cell viability assay (resazurin), CT-26; assay type: cell-based; conditions: read-out: IC50 (μM) CT-26
Protocol: as §1, §2

[6] = tested on: CT-26 LUC (mouse colon adenocarcinoma stably expressing luciferase); assay: Cytotoxicity, fluorometric cell viability assay (resazurin), CT-26 LUC; assay type: cell-based; conditions: read-out: IC50 (μM) CT-26 luc
Protocol: as §1, §2

[7] = tested on: RPE-1 (normal retina pigmented epithelial); assay: Cytotoxicity, fluorometric cell viability assay (resazurin), RPE-1; assay type: cell-based; conditions: read-out: IC50 (μM) RPE-1
Protocol: as §1, §2

[8] = Encapsulation in polysorbate 80 (film rehydration); assay type: physicochemical; conditions: in 50 mg/mL of polysorbate 80 in PBS, after 0.20 μm filtration
Protocol: The solvent was removed by rotary evaporation at 40° C. The red film was then resuspended in PBS (2 mL) at room temperature. The solution was finally sterile filtered on a 0.20 μm nylon membrane (Corning© 431224) to yield a clear red solution.
50 μL of the sample was diluted in 100 μL of acetonitrile and the absorbance was recorded at 480 nm in 96 wells plates from Corning© (Fisher Scientific 15329740) using a SpectraMax M5 microplate Reader.
Encapsulation efficiency was calculated by comparing the absorbance of the solution before and after filtration using the following equation.
To ensure its repeatability, the procedure was performed in triplicate.

[9] = tested on: HeLa cells; assay: Ruthenium cellular uptake and subcellular distribution by ICP-MS, HeLa; assay type: cell-based, human; conditions: 5 μM
Protocol: All the treatments were set up at the same concentration for comparative purposes. The medium was then removed, the cells washed with PBS and trypsinized. […] The organelles were then isolated via differential centrifugation. To separate lysosomes, a Lysosome Isolation Kit (Cat. Nr: LYSISO1, Sigma Aldrich) as well as the manufacturer procedure with minor modification was used. Briefly, the collected pellets were redissolved in 2.0 ml of extraction buffer added with proteases cocktail (delivered with the kit) and incubated for 15 min on ice. The samples were then homogenized with a pre-chilled dounce homogenizer (7 ml, tight pestle A, 22 strokes) and centrifuged at 1000 g for 10 min at 4° C. […] These steps of the isolation procedure were monitored under phase contrast microscope on Menzel-Glaser coverslips (Olympus IX81 microscope).
The supernatant was transferred in a fresh tube and centrifuged at 14000 g for 30 min at 4° C. […] The intact lysosomal content was proofed with Neutral-Red Reagent (delivered in the kit) with dual-wavelength absorbance mode at 460 and 510 nm over a kinetic of 3 minutes in a Spectramax M5 microplate reader (Molecular Devices). […]
Ruthenium content of the samples was determined by means of a 7-step serial dilution in the range between 0 and 300 ppb in Ru (R>0.99) with a background equivalent concentration of BEC: 6.3 ppt and a detection limit of DL: 17 ppt. […]

[10] = tested on: mitochondrial metabolism (oxidative phosphorylation) in CT-26 cell line; assay: Seahorse Mitostress test; assay type: cell-based, mouse; conditions: CT-26, 1 μM, 24 h incubation
Protocol: (§3) The preference of compound 1 to accumulate in the nucleus and mitochondria in HeLa cells inspired further studies on metabolic pathways that could be affected by the compound. For this purpose, Seahorse XF Analyzer was used. […] The effect on the other metabolic pathways, i.e. glycolysis and the possible metabolic modulation of the three primary fuel pathways, i.e. glucose, glutamine and fatty acid were then examined.
CT-26 cells were seeded in Seahorse XFe96 well plates at a density of 30,000 cells/well in 80 μL. […] After 24 h of incubation, the regular media was removed and the cells were washed thrice using bicarbonate and serum free DMEM, supplemented with glucose, 1.8 mg/mL; 1% glutamine and 1% sodium pyruvate and incubated in a non-CO2 incubator at 37° C. for 1 h. Mitostress assay was run using Oligomycin, 1 μM, FCCP 1 μM and mixture of Antimycin-A/Rotenone 1 μM each in ports A, B and C respectively using Seahorse XFe96 Extracellular Flux Analyzer.

[11] = tested on: glycolysis in CT-26 cells; assay: Seahorse glycolytic stress test; assay type: cell-based, mouse; conditions: CT-26, 1 μM, 24 h incubation
Protocol: as §3
CT-26 cells were seeded in Seahorse XFe96 well plates at a density of 30,000 cells/well in 80 μL. […] After 24 h of incubation, the regular media was removed and the cells were washed thrice using bicarbonate, glucose and serum free DMEM, supplemented 1% glutamine and 1% sodium pyruvate and incubated in a non-CO2 incubator at 37° C. for an hour. Glycolytic stress test was run using glucose, 10 mM, Oligomycin, 1 μM and 2-Deoxyglucose, 50 mM in ports A, B and C respectively using Seahorse XFe96 Extracellular Flux Analyzer.

[12] = tested on: fuel pathways (glucose, glutamine, fatty acid) in CT-26 cells; assay: Seahorse fuel flex assay; assay type: cell-based, mouse; conditions: CT-26, 1 μM, 24 h incubation
Protocol: as §3
CT-26 cells were seeded in Seahorse XFe96 well plates at a density of 30,000 cells/well in 80 μL. […] After 24 h of incubation, the regular media was removed and the cells were washed thrice using bicarbonate, and serum free DMEM, supplemented with 1.8 mg/mL glucose, 1% glutamine and 1% sodium pyruvate and incubated in a non-CO2 incubator at 37° C. for an hour. Fuel flex assay for the different fuel pathways viz. glucose, glutamine and fatty acid was studied by measuring the basal oxygen consumption rates and that after addition of the inhibitor of the target pathway in port A and a mixture of the inhibitors of the other two pathways in port B. This gave a measure of the dependency of the cells on a fuel pathway. To study the capacity of a certain fuel pathway, the sequence of addition of the inhibitors was reversed. In port A was added the mixture of inhibitors for the other pathways and in port B was added the inhibitor for the target pathway. […]

[13] = tested on: HeLa cells; assay: Annexin V/PI assay (cell death mechanism); conditions: 10 μM
From the text: For this experiment, Annexin V and PI staining method were utilised on HeLa cells.^15 Staurosporin, a known inducer of apoptosis, was used as a positive control.

[14] = Dose-finding study, maximum tolerated dose; conditions: healthy mice, i.p., weight loss limit 10% over 14 days
[15] = tested on: MRC-5 (normal lung fibroblasts); assay: Ruthenium cellular accumulation by ICP-MS, MRC5
Protocol: All the fractions (mitochondria, lysosomes and nucleus) were isolated from the same cellular sample for direct comparative purposes. The supernatant phases discarded during the isolation of nuclei, lysosomes and mitochondria procedures were collected and formed the “residual” fraction. An aliquot of crude lysate after homogenization, nuclear, mitochondrial (pellet lysed via freeze and thaw cycles followed by 20 minutes incubation in ultrasonic bath), lysosomal and residual fraction was each used for protein quantification using the Bradford method. The isolated samples were then lyophilized on an Alpha 2-4 LD plus (CHRIST). The resulting samples underwent chemical digestion with 10 mL of a 2% nitrohydrochloric acid solution for 24 h. The resulting suspensions were filtered on 0.20 μm non-pyrogenic sterile Filtropur filters (Sarstedt) and the obtained samples were injected in ICP-MS.
Ruthenium content of the samples was determined by means of a 7-step serial dilution in the range between 0 and 300 ppb in Ru (R>0.99) with a background equivalent concentration of BEC: 6.3 ppt and a detection limit of DL: 17 ppt. […] A solution of Indium (500 ppb) and Tungsten (500 ppb) was used as internal standard.

[16] = tested on: solid Ehrlich tumour; assay: Survival of mice bearing solid Ehrlich tumour; assay type: in vivo; conditions: 5 mg/kg i.p. on days 1 and 7, tumour-bearing NMRI mice
From the text: A solid Ehrlich tumour was purchased from the Research Institute for Pharmacy and Biochemistry (VUFB) in Prague, and then maintained in NMRI mice by periodical transplantations. […] On the tenth day, half of the mice were sacrificed, and their tumours were weighed. The remaining animals were left in order to observe their survival.
One-Way Analysis of Variance with post-hoc Dunnetts's multiple comparison test was used to detect differences in tumour weight. Kaplan-Meier curves (FIG. 4) and logrank tests were used to compare survival times in groups. Here, the level of significance was α=0.05.

[17] = tested on: solid Ehrlich tumour; assay: Tumour weight, solid Ehrlich tumour, day 10; conditions: 5 mg/kg i.p. on days 1 and 7, measured on day 10
From the text: Values are the means±SEM (n=7 in each group).
A solid Ehrlich tumour was purchased from the Research Institute for Pharmacy and Biochemistry (VUFB) in Prague, and then maintained in NMRI mice by periodical transplantations. […] On the tenth day, half of the mice were sacrificed, and their tumours were weighed.
One-Way Analysis of Variance with post-hoc Dunnetts's multiple comparison test was used to detect differences in tumour weight.

[18] = Homo sapiens, A2780, 48 h incubation
[19] = Homo sapiens, A2780 ADR, 48 h; read-out: IC50 (μM) A2780 ADR
[20] = Homo sapiens, A2780cis, A2780 cis (cisplatin resistant), 48 h incubation
[21] = Mus musculus, CT26, CT-26, 48 h incubation
[22] = Mus musculus, CT26, CT-26 luc, 48 h incubation
[23] = Homo sapiens, RPE-1 normal cells, 48 h incubation
[24] = A2780 ADR (doxorubicin resistant), 48 h incubation; read-out: IC50 (μM) A2780 ADR
[25] = A2780 cis (cisplatin resistant), 48 h incubation
[26] = RPE-1 normal cells, 48 h incubation

Compound | IC50 ([1]; Homo sapiens, 48 h incubation) | IC50 [2, 18] | IC50 [3, 19] | IC50 [4, 20] | IC50 [5, 21] | IC50 [6, 22] | IC50 [7, 23] | further results
Oc1c(O)c(Br)c(Br)c(Br)c1Br [Tetrabromocatechol] | – | – | – | – | – | – | – | IC50 ([1]; Homo sapiens, 48 h): 29.9 ± 1.6 µM; IC50 ([2]; Homo sapiens, A2780, 48 h): 8.75 ± 0.2 µM; IC50 ([3]; Homo sapiens, A2780 ADR, 48 h, read-out: IC50 (μM) A2780 ADR): 14.4 ± 1.18 µM; IC50 ([4]; Homo sapiens, A2780cis, 48 h): 13.6 ± 0.88 µM; IC50 ([5]; Mus musculus, CT26, 48 h): 5.53 ± 0.37 µM; IC50 ([6]; Mus musculus, CT26, 48 h): 3.8 ± 0.34 µM; IC50 ([7]; Homo sapiens, RPE-1, 48 h): 13.5 ± 1.7 µM
CC(C)(C)c1ccc(O)c(O)c1 [4-tertbutylcatechol] | 93.1 ± 9.8 µM | 9.14 ± 0.7 µM | 12.9 ± 1.2 µM | 14.6 ± 0.81 µM | 9.94 ± 0.63 µM | 9.72 ± 0.67 µM | 55.1 ± 4.64 µM | –
COc1cccc2c1C(=O)c1c(O)c3c(c(O)c1C2=O)C[C@@](O)(C(=O)CO)C[C@@H]3O[C@H]1C[C@H](N)[C@H](O)[C@H](C)O1 [Doxorubicin] | 0.34 ± 0.02 µM | 0.19 ± 0.03 µM | 5.94 ± 0.58 µM | 0.54 ± 0.04 µM | 0.082 ± 0.003 µM | – | 0.89 ± 0.17 µM | –
O=[N+]([O-])c1ccc(O)c(O)c1 [4-nitrocatechol] | > 100 µM | 30.9 ± 2.05 µM | 61.5 ± 3.63 µM | > 100 µM | 17.5 ± 1.02 µM | 15.3 ± 1 µM | 45 ± 19 µM | –
Oc1ccccc1O [catechol] | > 100 µM | 22.4 ± 5.83 µM | > 100 µM | 56 ± 9.46 µM | 16 µM | 11.5 ± 0.4 µM | > 100 µM | –
[Ru(DIP)2(3-Methoxysq)](PF6) [Compound 4] | – | – | – | – | – | – | – | concentration dissolved [8]: 840 ± 60 µg/mL
[Ru(DIP)2(Tetrabromocat)] [Compound 5] | – | – | – | – | – | – | – | IC50 ([1]; 48 h incubation): 10.5 ± 0.25 µM; IC50 ([2]; A2780, 48 h incubation): 10.2 ± 0.14 µM; IC50 [3, 24]: 15 ± 0.75 µM; IC50 [4, 25]: 17.2 ± 1.4 µM; IC50 ([5]; CT-26, 48 h incubation): 10.5 ± 0.5 µM; IC50 ([6]; CT-26 luc, 48 h incubation): 11.6 ± 0.7 µM; IC50 [7, 26]: 23.2 ± 2.5 µM
Ru(DIP)2(4-Nitrocat) [Compound 8] | – | – | – | – | – | – | – | IC50 ([1]; 48 h incubation): 10 ± 0.44 µM; IC50 ([2]; A2780, 48 h incubation): 12.4 ± 0.8 µM; IC50 [3, 24]: 18.6 ± 2.02 µM; IC50 [4, 25]: 16.4 ± 2.04 µM; IC50 ([5]; CT-26, 48 h incubation): 7.61 ± 0.11 µM; IC50 ([6]; CT-26 luc, 48 h incubation): 9.01 ± 0.19 µM; IC50 [7, 26]: 16.6 ± 0.98 µM
Cc1cccc(O)c1O [3-methylcatechol] | > 100 µM | 9.99 ± 1.26 µM | 2.71 ± 0.82 µM | 14.7 ± 0.69 µM | 17.5 ± 0.73 µM | 12.1 ± 1.4 µM | > 100 µM | –
COc1cccc(O)c1O [3-methoxycatechol] | 56.2 ± 4.18 µM | 18.7 ± 1.17 µM | 30.1 ± 1.35 µM | 36.5 ± 1.94 µM | 45.7 ± 4.21 µM | 36.4 ± 6.28 µM | > 100 µM | –
[Ru(DIP)2(Sq)](PF6) [Compound 1] | – | – | – | – | – | – | – | subcellular accumulation of ruthenium ([9]; 2 h, fractionated): preferential accumulation inside the nucleus; cellular uptake (internalization) ([9]; after 2 h): Near complete internalization; ATP production [10]: inhibited; mitochondrial respiration [10]: severely impaired; glycolysis of the cells [11]: not affected; effect on the 3 primary fuel pathways [12]: no direct effect; induction of apoptosis/necrosis ([13]; 30 min after treatment): induces apoptosis; type of cell death ([13]; 4 h or 24 h incubation): apoptosis as a main type of the cell death; maximum tolerated dose (MTD) [14]: 15 mg/kg of body weight; compound taken up by healthy cells [15]: less than 25%
Cc1occc(=O)c1O [Maltol, 3-Hydroxy-2-methyl-4H-pyran-4-one] | 74 ± 14.6 µM | > 100 µM | > 100 µM | > 100 µM | > 100 µM | > 100 µM | > 100 µM | –
[Cl-].[Cl-].[Ru+2].c1ccc(-c2ccnc3c2ccc2c(-c4ccccc4)ccnc23)cc1.c1ccc(-c2ccnc3c2ccc2c(-c4ccccc4)ccnc23)cc1 [Ru(DIP)2Cl2] | – | – | – | – | – | – | – | IC50 ([1]; 48 h incubation): 15 ± 0.4 µM; IC50 ([2]; A2780, 48 h incubation): 4.69 ± 0.14 µM; IC50 [3, 24]: 78.3 ± 4.9 µM; IC50 [4, 25]: 6.36 ± 0.57 µM; IC50 ([5]; CT-26, 48 h incubation): 9.2 ± 1.22 µM; IC50 ([6]; CT-26 luc, 48 h incubation): 6.65 ± 0.5 µM; IC50 [7, 26]: 3.13 ± 0.07 µM
N.N.[Cl][Pt][Cl] [Cisplatin] | – | – | – | – | – | – | – | IC50 ([1]; 48 h incubation): 9.28 ± 0.2 µM; IC50 ([2]; A2780, 48 h incubation): 4 ± 0.76 µM; IC50 [3, 24]: 8.32 ± 0.71 µM; IC50 [4, 25]: 18.3 ± 2.92 µM; IC50 ([5]; CT-26, 48 h incubation): 2.6 ± 0.18 µM; IC50 ([6]; CT-26 luc, 48 h incubation): 2.42 ± 0.23 µM; IC50 [7, 26]: 30.2 ± 5.11 µM; geometric mean of overall survival [16]: 33.7 days; effect on tumour growth (tumour weight) [17]: significant inhibitory effect
Cc1ccc(O)c(O)c1 [4-methylcatechol] | > 100 µM | 15.2 ± 1 µM | 29.3 ± 1.96 µM | 34.6 ± 1.49 µM | 34.4 ± 1.41 µM | 33.3 ± 3.4 µM | > 100 µM | –
